Experimental data as given in PMC9551036, “A selective and orally bioavailable VHL-recruiting PROTAC achieves SMARCA2 degradation in vivo” (Nature Communications, 2022).
Where “and” joins values, the source holds several entries; their conditions need not be identical. Equal values may be shown once. Read-outs that look alike come from different tables or passages of the source.

How the values were obtained:
NCI-H1568 cells = test: Cell viability assay (CellTiter Glo) in NCI-H1568; type: cell-based, human; conditions: for EC50: read-out: EC50 cell proliferation (CellTiter Glo); for IC50: CellTiter Glo, individual replicates, read-out: NCI-H1568 (18h) CTG
Method: 500–2000 cells were seeded in white, clear bottom 96-well plates (Corning or Perkin Elmer) in 180–200 µl medium per well. The next day, compounds were added using a digital dispenser and a T0 sample was measured for reference. […], and viability (luminescence) was measured using CellTiter Glo or CellTiter Glo 2.0 (Promega) according to manufacturer’s instructions after equilibrating cells and reagents at room temperature and 10–20 min incubation time while shaking.

SMARCA2 [1] = target: T1, SMARCA2 (Homo sapiens, UniProt P51531); test: Imaging-based SMARCA2 protein assay in RKO cells; type: cell-based; set-up: endogenous in cells; host or cells: RKO, NCI-H1568, A549, HCT116, LU99, HCC-364, HCT-15, HCC4006, SK-N-AS; conditions: individual replicates
Method: 1250 cells per well in 60 µl medium were plated in flat bottom, poly-lysin coated 384-well plates (CellCarrier Ultra, Perkin Elmer). The next day, test compounds (10 µl of serial dilutions) and DMSO controls were diluted in DMEM medium such that the final DMSO content was <1% or were added using an ultrasound dispensing system. 4 wells were reserved for a background measurement. […] After aspirating the fixing solution, the cells were washed once with 25 µl PBS. 25 µl of blocking buffer (10% goat serum in PBS) was added and cells were incubated for 30 min, then washed once with PBS. […] Cells were again washed once with PBS. […] The cell layer was then washed once with 25 µl PBS, the wells were filled with 25 µl PBS and the plates were sealed with an adhesive sheet. They were then imaged on the Opera Phoenix (mean intensity in the nucleus). […] EC50 values were computed using a 4-parametric logistic model.

SMARCA2 [2] = target: T1, SMARCA2; test: SMARCA2 capillary electrophoresis protein assay in RKO cells; type: cell-based; set-up: endogenous in cells; host or cells: RKO, NCI-H1568, A549, HCT116, LU99, HCC-364, HCT-15, HCC4006, SK-N-AS; conditions: mean ± SD
Method: 130,000–200,000 cells were seeded in 24-well plates and incubated until settled down or overnight. Compounds were dissolved in DMSO and added to cells in indicated concentrations using a digital dispenser following an optional media change. […] For SMARCA2/4 half-life determination, 150,000 or 200,000 cells were seeded in 24-well plates. […] For SMARCA2/4 re-synthesis measurements, 200,000 cells were seeded in 24-well plates. […] Medium was removed, cells were washed with PBS and lysed with 80 µl Lysis Buffer (MSD Tris Lysis Buffer (#R60TX-2) + Halt Inhibitor Cocktail (100x) + Benzonase 0.5 µL/ml). Samples were frozen at −80 °C and thawed at room temperature before use. Samples were transferred to a V-bottom plate and insoluble debris was pelleted by centrifugation for 5 min at maximum speed. The supernatant was transferred to a fresh plate. Master Mix and Ladder were prepared according to manufacturer’s instructions for 12–230 kDa Wes Separation Module, 8 × 25 capillary cartridges, Protein Simple #SM-W004 with Anti-Rabbit Detection Module for Wes, Peggy Sue or Sally Sue, Protein Simple #DM-001. 4.8 µl lysate were mixed with 1.2 µl Master Mix to achieve a protein concentration of ~0.5 µg/µl. […] Wes plates were prepared and run according to manufacturer’s instructions. Proteins were quantified with accompanying Compass Software. SMARCA2/4 protein levels were normalised to GAPDH. […] Where applicable, curves were fitted using a 4-parametric logistic model.

[3] = target: T2, (Homo sapiens, UniProt P51532); test: TR-FRET ternary complex affinity and cooperativity, SMARCA4; type: binding
T2 construct: P51532, residues 1448–1569 with additional N-terminal SM residues; GST (TEV site) (N); His6 (TEV site) (N, cleaved yes); made in house; host or cells: SMARCA4^BD: Escherichia coli BL21(DE3)

[4] = 4h, read-out: RKO (4h) SMARCA2 DC50
[5] = 18h, read-out: RKO (18h) SMARCA2 DC50
[6] = binary, PROTAC alone, individual replicates, read-out: SMARCA4 BD EC50
[7] = TR-FRET competition for SMARCA4BD, without VCB, mean ± SD, read-out: TR-FRET SMARCA4BD EC50

T1 sequence (P51531 whole entry): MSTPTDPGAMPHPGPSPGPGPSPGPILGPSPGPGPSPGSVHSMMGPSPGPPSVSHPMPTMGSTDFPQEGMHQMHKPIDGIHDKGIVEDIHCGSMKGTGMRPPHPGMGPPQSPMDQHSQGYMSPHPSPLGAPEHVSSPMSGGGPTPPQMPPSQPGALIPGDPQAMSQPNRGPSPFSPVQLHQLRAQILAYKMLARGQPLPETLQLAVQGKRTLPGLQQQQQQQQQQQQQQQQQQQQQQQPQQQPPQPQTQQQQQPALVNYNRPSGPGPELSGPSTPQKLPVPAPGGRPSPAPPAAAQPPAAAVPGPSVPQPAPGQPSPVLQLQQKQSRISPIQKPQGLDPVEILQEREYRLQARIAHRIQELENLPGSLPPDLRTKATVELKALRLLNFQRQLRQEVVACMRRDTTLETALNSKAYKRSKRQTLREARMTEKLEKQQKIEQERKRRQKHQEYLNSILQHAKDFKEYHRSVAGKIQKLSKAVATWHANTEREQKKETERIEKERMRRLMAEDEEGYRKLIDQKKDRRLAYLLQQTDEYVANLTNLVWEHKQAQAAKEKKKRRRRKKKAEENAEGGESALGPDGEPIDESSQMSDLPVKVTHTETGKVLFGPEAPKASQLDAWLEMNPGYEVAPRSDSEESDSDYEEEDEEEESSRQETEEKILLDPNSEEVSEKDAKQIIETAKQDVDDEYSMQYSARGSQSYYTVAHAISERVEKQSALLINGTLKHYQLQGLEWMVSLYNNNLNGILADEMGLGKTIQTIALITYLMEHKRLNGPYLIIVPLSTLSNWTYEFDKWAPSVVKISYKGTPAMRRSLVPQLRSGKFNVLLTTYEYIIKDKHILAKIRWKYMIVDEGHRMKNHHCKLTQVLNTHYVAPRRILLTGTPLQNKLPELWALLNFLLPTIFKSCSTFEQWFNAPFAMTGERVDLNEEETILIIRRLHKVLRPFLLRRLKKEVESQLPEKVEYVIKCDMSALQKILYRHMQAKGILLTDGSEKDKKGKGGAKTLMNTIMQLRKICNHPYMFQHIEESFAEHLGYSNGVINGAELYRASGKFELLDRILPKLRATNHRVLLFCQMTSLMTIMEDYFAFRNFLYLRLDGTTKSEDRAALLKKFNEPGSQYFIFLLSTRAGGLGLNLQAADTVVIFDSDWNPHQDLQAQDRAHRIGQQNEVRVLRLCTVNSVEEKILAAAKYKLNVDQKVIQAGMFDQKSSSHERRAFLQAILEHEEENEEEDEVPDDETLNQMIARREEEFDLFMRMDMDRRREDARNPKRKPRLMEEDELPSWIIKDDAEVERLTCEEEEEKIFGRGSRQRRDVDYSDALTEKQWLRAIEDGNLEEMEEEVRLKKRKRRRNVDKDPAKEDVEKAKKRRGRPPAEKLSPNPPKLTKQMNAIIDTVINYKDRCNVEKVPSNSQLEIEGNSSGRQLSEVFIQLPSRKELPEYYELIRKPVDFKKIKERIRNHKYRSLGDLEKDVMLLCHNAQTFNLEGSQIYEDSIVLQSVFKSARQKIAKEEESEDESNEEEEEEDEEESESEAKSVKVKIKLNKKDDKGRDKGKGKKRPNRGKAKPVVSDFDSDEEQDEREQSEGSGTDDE
T2 sequence (P51532 1448-1569): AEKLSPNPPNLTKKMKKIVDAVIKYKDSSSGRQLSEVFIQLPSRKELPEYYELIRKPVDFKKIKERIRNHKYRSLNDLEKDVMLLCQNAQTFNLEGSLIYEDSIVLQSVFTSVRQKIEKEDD

Row | SMILES | EC50 (NCI-H1568 cells; NCI-H1568 ([…]), mean ± SD) [nM] | IC50 (NCI-H1568 cells; NCI-H1568, (18h)) | DC50 (SMARCA2 [1]; [4]) | DC50 (SMARCA2 [1]; [5]) | DC50 (SMARCA2 [2]; RKO (4 h)) [nM] | DC50 (SMARCA2 [2]; RKO (18 h)) [nM] | EC50 [3, 6] | EC50 (NCI-H1568 cells; Homo sapiens, NCI-H1568, […]) [nM] | Dmax (SMARCA2 [2]; RKO, RKO (18 h)) [%] | EC50 [3, 7] [nM] | SMARCA2 Dmax (SMARCA2 [2]; RKO (4 h)) [%] | SMARCA2 Dmax (SMARCA2 [2]; RKO (18 h)) [%] | IC50 (NCI-H1568 cells; Homo sapiens, NCI-H1568, 18 h) [nM]
1 | CN1CCN(c2nc(=O)c3ccccc3o2)CC1 [compound 14] | > 10000 | > 10000 nM | > 25000 nM | > 25000 nM | > 25000 | > 25000 | > 10000 nM | – | – | – | – | – | –
2 | Cc1ncsc1-c1ccc([C@H](CC[C@H](C)CCN2CCC(c3ccc4c(c3)n(C3CCCC3)c3nc(=O)c5c(Br)cccc5n43)CC2)NC(=O)[C@@H]2C[C@H](O)CN2C(=O)[C@@H](NC(=O)C2(F)CC2)C(C)(C)C)cc1 [compound 12] | – | 411 nM and 372 nM and 85.9 nM | > 25000 nM | 10700 nM and 4780 nM and 8270 nM and > 25000 nM | > 25000 | – | > 400 nM and 339 nM and 302 nM | 236 ± 175 | 82 ± 16 | 347 ± 41 | – | – | –
3 | CN1CCN(c2nc(=O)c3c(I)cccc3o2)CC1 [compound 16] | > 10000 | > 10000 nM | > 25000 nM | > 25000 nM | > 25000 | > 25000 | > 10000 nM | – | – | – | – | – | –
4 | Cc1ncsc1-c1ccc(CNC(=O)[C@@H]2C[C@@H](O)CN2C(=O)[C@@H](NC(=O)C2(F)CC2)C(C)(C)C)c(OCCOCCOCCOCCN2CCC(c3ccc4c(c3)n(C3CCCC3)c3nc(=O)c5c(Br)cccc5n43)CC2)c1 [compound 22] | 187 ± 76 | 280 nM and 175 nM and 133 nM | 85.8 nM and 400 nM and 157 nM | 97.4 nM and 276 nM and 121 nM | 175 ± 165 | 148 ± 97 | 659 nM and 965 nM and 837 nM and 819 nM | – | – | 813 ± 126 | 71 ± 25 | 75 ± 8 | –
5 | CN1CCC(c2ccc3c(c2)n(C2CCCC2)c2nc(=O)c4c(Br)cccc4n32)CC1 [compound 3] | – | – | > 25000 nM | 20000 nM and 24900 nM and 22400 nM | > 25000 | 22300 | 95.4 nM and 105 nM and 124 nM and 115 nM and 117 nM and 113 nM (3×) and 121 nM and 114 nM and 81.2 nM and 90.5 nM and 95.1 nM and 82.4 nM and 86.5 nM and 90.1 nM and 86 nM and 90.3 nM (2×) and 78 nM and 69.2 nM and 191 nM and 161 nM and 107 nM and 99.4 nM and 89 nM and 90.2 nM and 81.3 nM and 182 nM and 188 nM and 131 nM and 128 nM and 126 nM and 132 nM and 94.7 nM and 129 nM and 86.8 nM and 102 nM and 109 nM and 112 nM | 1260 | – | 107 ± 29 | – | – | –
6 | Cc1ncsc1-c1ccc([C@H](CCC(C)(C)CCN2CCC(c3ccc4c(c3)n(C3CCCC3)c3nc(=O)c5c(Br)cccc5n43)CC2)NC(=O)[C@@H]2C[C@@H](O)CN2C(=O)[C@@H](NC(=O)C2(F)CC2)C(C)(C)C)cc1 [compound 30] | 12 ± 6 | 19.7 nM and 17.5 nM and 8.43 nM and 7.53 nM | 6.74 nM and 9.27 nM | 2.02 nM and 3.96 nM and 3.27 nM and 3.57 nM | 8 ± 2 | 3 ± 1 | > 2000 nM and 564 nM and > 400 nM | – | – | – | 74 ± 5 | 82 ± 5 | –
7 | CN1CCN(c2nc(=O)c3c(Cl)cccc3o2)CC1 [compound 13] | > 10000 | > 10000 nM | > 25000 nM | > 25000 nM | > 25000 | > 25000 | > 10000 nM | – | – | – | – | – | –
8 | Cc1ncsc1-c1ccc([C@H](COCCCN2CCC(c3ccc4c(c3)n(C3CCCC3)c3nc(=O)c5c(Br)cccc5n43)CC2)NC(=O)[C@@H]2C[C@@H](O)CN2C(=O)[C@@H](NC(=O)C2(F)CC2)C(C)(C)C)cc1 [compound 27] | 13 ± 1 | 14.2 nM and 12 nM and 13.3 nM | 5.2 nM and 2.76 nM and 5.65 nM and 7.65 nM | 1.7 nM and 2.99 nM and 2.34 nM | 5 ± 2 | 2 ± 1 | 183 nM and 211 nM and 185 nM and 209 nM and 173 nM and 200 nM | – | – | 193 ± 15 | 70 ± 7 | 85 ± 3 | –
9 | Cc1ncsc1-c1ccc(CNC(=O)[C@@H]2C[C@H](O)CN2C(=O)[C@@H](NC(=O)C2(F)CC2)C(C)(C)C)c(OCCN2CCC(c3ccc4c(c3)n(C3CCCC3)c3nc(=O)c5c(Br)cccc5n43)CC2)c1 [compound 19] | 564 ± 384 | 595 nM and 1050 nM and 287 nM | > 25000 nM | > 25000 nM | > 25000 | > 25000 | 194 nM and 151 nM and 129 nM | – | – | 158 ± 27 | – | – | –
10 | Cc1ncsc1-c1ccc(CNC(=O)[C@@H]2C[C@@H](O)CN2C(=O)[C@@H](NC(=O)C2(F)CC2)C(C)(C)C)c(OCCOCCOCCN2CCC(c3ccc4c(c3)n(C3CCCC3)c3nc(=O)c5c(Br)cccc5n43)CC2)c1 [compound 21] | 223 ± 30 | 257 nM and 199 nM and 216 nM | > 25000 nM | 77.5 nM and 151 nM and 100 nM | > 25000 | 106 ± 38 | 443 nM and 585 nM and 542 nM | – | – | 520 ± 73 | – | 67± 8 | –
11 | Cc1ncsc1-c1ccc(CNC(=O)[C@@H]2C[C@@H](O)CN2C(=O)[C@@H](NC(=O)C2(F)CC2)C(C)(C)C)c(OCCN2CCC(c3ccc4c(c3)n(C3CCCC3)c3nc(=O)c5c(Br)cccc5n43)CC2)c1 [compound 20] | 74 ± 52 | 80.9 nM and 35.3 nM and 140 nM | > 25000 nM | – | > 25000 | > 25000 | 101 nM and 114 nM and 130 nM and 140 nM | – | – | 120 ± 17 | – | – | –
12 | Cc1ncsc1-c1ccc([C@H](CC[C@@H](C)CCN2CCC(c3ccc4c(c3)n(C3CCCC3)c3nc(=O)c5c(Br)cccc5n43)CC2)NC(=O)[C@@H]2C[C@@H](O)CN2C(=O)[C@@H](NC(=O)C2(F)CC2)C(C)(C)C)cc1 [compound 29] | 5 ± 2 | 4.01 nM and 5.99 nM and 2.49 nM and 8.59 nM and 7.01 nM | 1.56 nM and 2.15 nM and 1.32 nM and 3.46 nM | 0.877 nM and 0.998 nM and 0.942 nM and 0.753 nM | 2 ± 1 | 1 ± 0.1 | 272 nM and 625 nM and 423 nM | – | – | 416 ± 177 | 74 ± 2 | 84 ± 4 | –
13 | Nc1cccc2c1c(=O)nc1n(C3CCCC3)c3ccccc3n21 [compound 2] | – | – | > 25000 nM | > 25000 nM | > 25000 | > 25000 | 2340 nM and 2880 nM and 2050 nM | > 10000 | – | 2400 | – | – | > 10000
